pIC50: −log10 of the molar value.
System: Hs578T multi-cell spheroids, viability
Test: Anticancer human tumor Hs578T cell line growth inhibition [IpAb];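 further: drug exposure lasted 7 days before readout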
Conditions: for pIC50: curve of first compound; for viability, T/C: stronger effect = lower value
Text: Combinatorial screen of targeted agents with ipatasertib and abemaciclib in multi-cell type tumor spheroids
A high-throughput screen of multi-cell type tumor spheroids was designed to identify active combinations of targeted small molecules and ipatasertib or abemaciclib. Complex spheroids include a stromal component modeled by human endothelial cells (HUVEC) and fibroblasts modeled by human mesenchymal stem cells (MSCs). The concentration ranges selected for each drug and investigational agent were based upon clinically achievable concentrations if the clinical Cmax of the agent was known.
Compounds. The drugs and investigational agents: ipatasertib (NSC767898), abemaciclib(NSC768073), selumetinib (NSC741078), trametinib (758246), adavosertib (NSC754352), everolimus (NSC733504), sapanisertib (NSC764658), vemurafenib (NSC761431), venetoclax (NSC766270), copanlisib (NSC809693), apelisib (NSC765974), palbociblib (NSC758247), vemurafenib (NSC761431), dabrafenib (NSC764134), ravoxertinib (NSC781343), BMS-387032 (NSC767048), sotorasib (NSC818433), talazoparib (NSC767125) and afursertib (NSC778305), were obtained from the National Cancer Institute (NCI) Developmental Therapeutics Program Chemical Repository. The FDA-approved anticancer drug set is available from the NCI Developmental Therapeutics Program. […] The stock solutions were prepared in dimethyl sulfoxide (DMSO, Sigma-Aldrich, St. Louis, MO, cat. D2650) at 800-fold the tested concentration and stored at -70 degrees C prior to their use. All drugs and investigational agents were tested over a range starting from a high concentration at or near the clinical Cmax and decreasing in half-log increments. If the clinical Cmax for an agent had not been determined, the highest concentration tested was 10 microM.
NCI60 Cell Culture. NCI60 cell lines were obtained from the NCI Developmental Therapeutics Program Tumor Repository. For each lot of cells, the Repository performed Applied Biosystems AmpFLSTR Identifiler testing with PCR amplification to confirm consistency with the published Identifier STR profile for each cell line. Cells were kept in continuous culture for no more than 20 passages. The optimal seeding densities for each of the cell lines at each time point assessed were determined prior to performing the concentration response studies. Briefly, the NCI60 human tumor lines were grown as monolayers in RPMI 1640 medium supplemented with 10% FBS and 2 mmol/L L-glutamine.
An additional 9 lines were from the NCI60 cell line panel including MDA-MB-231 breast carcinoma, MDA-MB-468 breast carcinoma, MCF7 breast carcinoma, Hs578T breast carcinoma, MALME-3M melanoma, SK-MEL-2 melanoma, SK-OV-3 ovarian carcinoma, DU-145 prostate carcinoma, PC-3 prostate carcinoma, all cell lines along with major genetic alterations are listed on Table 2. Pooled donor human umbilical vein endothelial cells (HUVEC, Lonza, cat. CC-2519) and human mesenchymal stem cells (hMSC, Lonza, cat. PT-2501) were purchased from Lonza (Walkersville, MD).
PDMR cell lines were grown in complete medium (DC medium): Dulbecco's modified Eagle's medium (DMEM)/F12 supplemented with 5% fetal bovine serum (FBS), 2 mM L-glutamine, 100 U/mL penicillin and 100 µg/ml streptomycin, 0.4 µg/ml hydrocortisone, 10 ng/ml epidermal growth factor (EGF) recombinant human protein, 24 µg/mL adenine, and 0.1 mg/mL primocin. During culture from frozen stock vials, PDMR cells were cultured in the same medium containing 10 µM Y-27632 (see Table 3). The PDCs were cultured in complete DMEM/F12 media without 10 microM Y-27632 dihydrochloride for at least two passages prior to the screen. The pooled donor HUVEC and hMSC were cultured in endothelial cell growth medium 2 (PromoCell, Heidelberg, Germany, cat. C-22011) and mesenchymal stem cell growth medium 2 (PromoCell, cat. C-28009), respectively. For all experiments, HUVEC and hMSC were used at passages </=5.
[…]

[1] = second compound 0.1 µM, first compound 0.0316 µM
[2] = second compound 0.1 µM, first compound 0.1 µM
[3] = second compound 0.1 µM, first compound 0.316 µM
[4] = second compound 0.1 µM, first compound 1 µM
[5] = second compound 0.1 µM, first compound 3.16 µM
[6] = second compound 0.1 µM, first compound 10 µM
[7] = second compound 0.316 µM, first compound 0.0316 µM
[8] = second compound 0.316 µM, first compound 0.1 µM
[9] = second compound 0.316 µM, first compound 0.316 µM
[10] = second compound 0.316 µM, first compound 1 µM
[11] = second compound 0.316 µM, first compound 3.16 µM
[12] = second compound 0.316 µM, first compound 10 µM
[13] = second compound 1 µM, first compound 0.0316 µM
[14] = second compound 1 µM, first compound 0.1 µM
[15] = second compound 1 µM, first compound 0.316 µM
[16] = second compound 1 µM, first compound 1 µM
[17] = second compound 1 µM, first compound 3.16 µM
[18] = second compound 1 µM, first compound 10 µM

| Compound | pIC50 (second compound 0.1 µM) | pIC50 (second compound 0.316 µM) | pIC50 (second compound 1 µM) | viability, T/C [1] | viability, T/C [2] | viability, T/C [3] | viability, T/C [4] | viability, T/C [5] | viability, T/C [6] | viability, T/C [7] | viability, T/C [8] | viability, T/C [9] | viability, T/C [10] | viability, T/C [11] | viability, T/C [12] | viability, T/C [13] | viability, T/C [14] | viability, T/C [15] | viability, T/C [16] | viability, T/C [17] | further results |
| --- | --- | --- | --- | --- | --- | --- | --- | --- | --- | --- | --- | --- | --- | --- | --- | --- | --- | --- | --- | --- | --- |
| C=CC(=O)N1CCN(c2nc(=O)n(-c3c(C)ccnc3C(C)C)c3nc(-c4c(O)cccc4F)c(F)cc23)C(C)C1 (stereo not given) + CCN1CCN(Cc2ccc(Nc3ncc(F)c(-c4cc(F)c5nc(C)n(C(C)C)c5c4)n3)nc2)CC1 | < 5.00 | < 5.00 | < 5.00 | 92.5% | 86.3% | 94.1% | 102% | 92.5% | 77.2% | 93.2% | 95.5% | 98% | 101% | 92.8% | 77.9% | 104% | 107% | 112% | 118% | 101% | pIC50 (second compound 0.01 µM): < 5.00; pIC50 (second compound 0.0316 µM): < 5.00; viability, T/C (second compound 0.01 µM, first compound 0.0316 µM): 97.5%; viability, T/C (second compound 0.01 µM, first compound 0.1 µM): 103%; viability, T/C (second compound 0.01 µM, first compound 0.316 µM): 101%; viability, T/C (second compound 0.01 µM, first compound 1 µM): 96.2%; viability, T/C (second compound 0.01 µM, first compound 3.16 µM): 98.8%; viability, T/C (second compound 0.01 µM, first compound 10 µM): 74.5%; viability, T/C (second compound 0.0316 µM, first compound 0.0316 µM): 96%; viability, T/C (second compound 0.0316 µM, first compound 0.1 µM): 97.2%; viability, T/C (second compound 0.0316 µM, first compound 0.316 µM): 100%; viability, T/C (second compound 0.0316 µM, first compound 1 µM): 96%; viability, T/C (second compound 0.0316 µM, first compound 3.16 µM): 92.3%; viability, T/C (second compound 0.0316 µM, first compound 10 µM): 76.8%; viability, T/C [18]: 88.4% |
| Cc1nc(NC(=O)N2CCCC2C(N)=O)sc1-c1ccnc(C(C)(C)C(F)(F)F)c1 (stereo not given) + CC(C)NCC(C(=O)N1CCN(c2ncnc3c2C(C)CC3O)CC1)c1ccc(Cl)cc1 | 5.80 | 6.01 | 6.31 | 96.8% | 87.8% | 70.8% | 57.4% | 42.6% | 11.7% | 80.1% | 71.3% | 57.1% | 48.7% | 41% | 13.9% | 61.8% | 61.4% | 53.9% | 42.3% | 30.6% | pIC50 (second compound 3.16 µM): 7.00; pIC50 (second compound 10 µM): > 7.50; viability, T/C [18]: 8.93%; viability, T/C (second compound 3.16 µM, first compound 0.0316 µM): 53.6%; viability, T/C (second compound 3.16 µM, first compound 0.1 µM): 51%; viability, T/C (second compound 3.16 µM, first compound 0.316 µM): 44.1%; viability, T/C (second compound 3.16 µM, first compound 1 µM): 35%; viability, T/C (second compound 3.16 µM, first compound 3.16 µM): 32.5%; viability, T/C (second compound 3.16 µM, first compound 10 µM): 9.58%; viability, T/C (second compound 10 µM, first compound 0.0316 µM): 45.3%; viability, T/C (second compound 10 µM, first compound 0.1 µM): 42.1%; viability, T/C (second compound 10 µM, first compound 0.316 µM): 39.2%; viability, T/C (second compound 10 µM, first compound 1 µM): 28.8%; viability, T/C (second compound 10 µM, first compound 3.16 µM): 21.8%; viability, T/C (second compound 10 µM, first compound 10 µM): 1.81% |
